From US8030487B2, “2-amino—5-substituted pyrimidine inhibitors” (TargeGen, Inc., priority 2006, dated 2011)

How the values were obtained:
human c-Src = biological target: T1, human c-Src (Homo sapiens, UniProt P12931); test: Src kinase inhibition (KinaseGlo residual ATP); format: biochemical; settings: ATP 3 μM, 90 min room temperature
T1 construct: purchased Panvera/Invitrogen
Procedure: (§1) The ability of compounds of the present invention to inhibit the activity of various groups of kinases was tested. Kinases that were tested are described below. All kinase reactions were conducted in 96-well plates with a final reaction volume of 50 μl.
Recombinant human c-Src or Yes, or Fyn, or Lck (28 ng/well, Panvera/Invitrogen, Madison Wis.), ATP (3 μM), a tyrosine kinase substrate (PTK2, 250 μM, Promega Corp., Madison Wis.), and test agents (at concentrations ranging from about 1 nM/l to about 100 μM/l), in the presence of Src kinase reaction buffer (Upstate USA, Lake Placid N.Y.). After reacting for about 90 minutes at room temperature, residual ATP was determined using a luciferase-based assay (KinaseGlo, Promega Corp.) as a measure of kinase activity. Data from four wells were then averaged and used to determine IC50 values for the test compounds (Prism software package, GraphPad Software, San Diego Calif.).

VEGFR2 = biological target: T2, VEGFR2 (Homo sapiens, UniProt P35968); test: VEGFR2 kinase inhibition (residual ATP luminescence); format: biochemical; settings: 1.5 uM ATP, 60 min 37° C.
T2 construct: purchased Cell Signaling/ProQinase
T2 sequence (P35968 20-1356, species assumed): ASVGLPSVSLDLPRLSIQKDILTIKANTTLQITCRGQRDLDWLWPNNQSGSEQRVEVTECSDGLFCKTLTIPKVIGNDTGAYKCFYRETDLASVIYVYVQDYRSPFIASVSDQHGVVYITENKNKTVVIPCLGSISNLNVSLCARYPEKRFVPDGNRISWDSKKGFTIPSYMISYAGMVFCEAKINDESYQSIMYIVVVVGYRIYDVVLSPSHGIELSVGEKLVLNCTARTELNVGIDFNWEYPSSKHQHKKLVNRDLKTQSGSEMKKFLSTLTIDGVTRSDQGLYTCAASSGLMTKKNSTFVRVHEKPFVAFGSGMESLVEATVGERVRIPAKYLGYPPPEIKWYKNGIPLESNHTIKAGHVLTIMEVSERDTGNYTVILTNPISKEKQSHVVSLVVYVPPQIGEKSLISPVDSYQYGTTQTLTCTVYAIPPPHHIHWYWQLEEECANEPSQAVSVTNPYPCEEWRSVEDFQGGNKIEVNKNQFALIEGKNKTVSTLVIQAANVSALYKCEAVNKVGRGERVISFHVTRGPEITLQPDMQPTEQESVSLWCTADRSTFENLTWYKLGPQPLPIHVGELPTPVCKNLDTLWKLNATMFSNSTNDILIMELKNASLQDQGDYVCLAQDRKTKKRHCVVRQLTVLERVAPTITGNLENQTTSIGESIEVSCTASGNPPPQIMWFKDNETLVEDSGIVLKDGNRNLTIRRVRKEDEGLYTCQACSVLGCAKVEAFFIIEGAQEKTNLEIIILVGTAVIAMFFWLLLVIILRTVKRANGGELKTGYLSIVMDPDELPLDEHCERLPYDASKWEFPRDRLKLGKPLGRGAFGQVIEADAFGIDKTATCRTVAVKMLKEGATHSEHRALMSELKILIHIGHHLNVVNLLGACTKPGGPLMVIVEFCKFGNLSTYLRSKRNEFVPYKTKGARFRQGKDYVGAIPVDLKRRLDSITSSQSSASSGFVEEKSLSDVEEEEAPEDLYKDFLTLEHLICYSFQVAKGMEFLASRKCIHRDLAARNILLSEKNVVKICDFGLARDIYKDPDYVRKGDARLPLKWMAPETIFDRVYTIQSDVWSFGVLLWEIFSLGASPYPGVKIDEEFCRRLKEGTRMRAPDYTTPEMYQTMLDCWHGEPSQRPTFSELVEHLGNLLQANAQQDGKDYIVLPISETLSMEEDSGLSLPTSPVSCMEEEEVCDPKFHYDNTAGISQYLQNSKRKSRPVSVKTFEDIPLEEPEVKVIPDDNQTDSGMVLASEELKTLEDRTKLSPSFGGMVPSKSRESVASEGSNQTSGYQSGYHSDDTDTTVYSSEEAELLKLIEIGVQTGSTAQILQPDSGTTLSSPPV
Procedure: as §1
EGFR and VEGFR2 kinase assays were similarly performed. EGFR (76 ng/well, Panvera/Invitrogen) was combined with 12.5 mg/ml poly(glu4tyr) (Sigma) and 2.5 uM ATP. VEGFR2 (14.1 U/well, Cell Signaling/ProQinase) was used with 0.3 mg/ml poly(glu4tyr) and 1.5 uM ATP. Both were incubated for 60 minutes at 37° C., and the residual ATP was measured via luminescence, per the procedure described above.

T1 sequence (P12931 whole entry): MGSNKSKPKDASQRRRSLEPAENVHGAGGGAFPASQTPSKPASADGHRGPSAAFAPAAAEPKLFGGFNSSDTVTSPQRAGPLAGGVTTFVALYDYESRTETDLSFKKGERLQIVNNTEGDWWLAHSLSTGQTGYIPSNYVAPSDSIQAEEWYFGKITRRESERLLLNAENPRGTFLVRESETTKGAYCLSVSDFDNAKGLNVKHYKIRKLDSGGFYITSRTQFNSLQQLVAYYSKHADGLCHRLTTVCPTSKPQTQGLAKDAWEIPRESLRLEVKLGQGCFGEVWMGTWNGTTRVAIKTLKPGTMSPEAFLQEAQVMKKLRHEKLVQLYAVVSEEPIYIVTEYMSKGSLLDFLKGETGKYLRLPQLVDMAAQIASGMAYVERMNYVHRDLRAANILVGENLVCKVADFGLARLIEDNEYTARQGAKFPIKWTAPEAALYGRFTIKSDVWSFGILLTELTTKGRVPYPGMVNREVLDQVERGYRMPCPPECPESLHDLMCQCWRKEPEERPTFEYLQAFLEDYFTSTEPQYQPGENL

Row | SMILES | IC50 (human c-Src) [nM] | IC50 (VEGFR2) [nM]
1 | Cc1ccc(NC(=O)c2c(F)cc(F)cc2F)cc1C(=O)Nc1cnc(Nc2cccc(CCCN3CCCC3)c2)nc1 | 102 | 
2 | CN1CCN(C(=O)c2ccc(Nc3ncc(NC(=O)c4cc(NC(=O)c5cccnc5)ccc4Cl)cn3)cc2)CC1 | 93.2 | 
3 | Cc1ccc(NC(=O)c2cccc(C(F)(F)F)c2)cc1Nc1cnc(Nc2cccc(CCCN3CCCC3)c2)nc1 | 755 | 
4 | Cc1cccc(C(=O)Nc2ccc(Cl)c(C(=O)Nc3cnc(Nc4ccc(S(=O)(=O)CCCN5CCCC5)cc4)nc3)c2)c1 | 11.6 | 
5 | Cc1ccc(NC(=O)Nc2cccc(C(F)(F)F)c2)cc1C(=O)Nc1cnc(Nc2cccc(OCCN3CCCC3)c2)nc1 | 1.8 | 73.1
6 | Cc1ccc(NC(=O)c2ccccc2)cc1C(=O)Nc1cnc(Nc2cccc(OCCN3CCCC3)c2)nc1 | 16.6 | 
7 | O=C(Nc1ccc(Cl)c(C(=O)Nc2cnc(Nc3ccc(S(=O)(=O)C4CCNCC4)cc3)nc2)c1)c1cccs1 | 38.2 | 
8 | N#Cc1ccc(C(=O)Nc2ccc(Cl)c(C(=O)Nc3cnc(Nc4ccc(S(=O)(=O)C5CCNCC5)cc4)nc3)c2)cc1 | 32 | 
9 | COc1ccc(C(=O)Nc2ccc(Cl)c(C(=O)Nc3cnc(Nc4ccc(S(=O)(=O)C5CCNCC5)cc4)nc3)c2)cc1 | 17.5 | 
10 | O=C(Nc1cnc(Nc2cccnc2)nc1)c1cc(Nc2ccc3ccccc3n2)ccc1Cl | 454 | 
11 | Cc1ccc(NC(=O)C(C)(C)C)cc1C(=O)Nc1cnc(Nc2ccc(OCCN3CCCC3)cc2)nc1 | > 10000 | 
12 | Cc1ccc(NC(=O)Nc2ccccc2)cc1C(=O)Nc1cnc(Nc2ccc(OCCN3CCCC3)cc2)nc1 | 4.5 | 168
13 | O=C(Nc1ccc(Cl)c(C(=O)Nc2cnc(Nc3ccc(S(=O)(=O)C4CCNCC4)cc3)nc2)c1)c1cc(C(F)(F)F)ccc1F | 4.2 | 22.3
14 | O=C(Nc1ccc(Cl)c(C(=O)Nc2cnc(Nc3ccc(S(=O)(=O)C4CCNCC4)cc3)nc2)c1)c1cccc(Cl)c1 | 2.5 | 11.6
15 | Cc1ccc(NC(=O)Nc2cccc(C(F)(F)F)c2)cc1C(=O)Nc1cnc(Nc2cccnc2)nc1 | 7.9 | 27.8
16 | O=C(Nc1cnc(Nc2ccc(OCCN3CCCC3)cc2)nc1)c1cc(NC(=O)C2CCCCC2)ccc1Cl | 19.4 | 
17 | Cc1ccc(NC(=O)Cc2cccc(C(F)(F)F)c2)cc1C(=O)Nc1cnc(Nc2cccnc2)nc1 | 56.9 | 
18 | O=C(Nc1cnc(Nc2cccc(OCCN3CCCC3)c2)nc1)c1cc(Nc2ccccn2)ccc1Cl | 169 | 

Row | SMILES | IC50 (human c-Src) [nM] | IC50 (VEGFR2) [nM]
19 | CCOC(=O)c1cccc(Nc2ncc(NC(=O)c3cc(NC(=O)c4cccc(C(F)(F)F)c4)ccc3Cl)cn2)c1 | 13.4 | 
20 | Nc1ncc(NC(=O)c2cc(NC(=O)c3cccc(C(F)(F)F)c3)ccc2Cl)cn1 | 72 | 
21 | O=C(Nc1ccc(Cl)c(CNc2cnc(Nc3cccnc3)nc2)c1)c1cccc(C(F)(F)F)c1 | 10.2 | 2.1
22 | CC(=O)Nc1ccc(Cl)c(C(=O)Nc2cnc(Nc3ccc(S(=O)(=O)C4CCNCC4)cc3)nc2)c1 | 2600 | 
23 | O=C(Nc1cnc(Nc2ccc(CCCN3CCCC3)cc2)nc1)c1cc(Nc2ccc3ccccc3n2)ccc1Cl | 407 | 
24 | Cc1cc(C(=O)Nc2ccc(Cl)c(C(=O)Nc3cnc(Nc4ccc(OCCN5CCCC5)cc4)nc3)c2)no1 | 77.5 | 
25 | O=C(Nc1cccc(C(F)(F)F)c1)Nc1ccc(Cl)c(C(=O)Nc2cnc(Nc3cccnc3)nc2)c1 | 14.2 | 20.1
26 | Cc1ccc(S(=O)(=O)NCc2ccccc2)cc1Nc1cnc(Nc2ccc(S(=O)(=O)NCCN3CCCC3)cc2)nc1 | 1300 | 
27 | Cc1ccc(S(N)(=O)=O)cc1Nc1cnc(Nc2ccc(S(=O)(=O)NCCN3CCCC3)cc2)nc1 | ~10000 | 
28 | O=C(Nc1ccc(Cl)c(NC(=O)c2cnc(Nc3cccnc3)nc2)c1)c1cccc(C(F)(F)F)c1 | 86 | 178
29 | COc1ccc(Nc2ncc(NC(=O)c3cc(NC(=O)c4cccc(C(F)(F)F)c4)ccc3Cl)cn2)cc1 | 12 | 23
30 | O=C(Nc1ccc(Cl)c(C(=O)Nc2cnc(Nc3ccc(OC(=O)c4ccccc4)cc3)nc2)c1)c1cccc(C(F)(F)F)c1 | 647 | 361
31 | Cc1cccc(NC(=O)c2cccc(C(=O)Nc3cnc(Nc4ccc(S(=O)(=O)CCCN5CCCC5)cc4)nc3)c2)c1 |  | 164
32 | O=C(Nc1cnc(Nc2cccc(OCCN3CCCC3)c2)nc1)c1cc(NC(=O)C(F)(F)F)ccc1Cl [drawing 168] | 63.4 | 
33 | O=C(Nc1ccc(Cl)c(C(=O)Nc2cnc(Nc3ccc(S(=O)(=O)C4CCNCC4)cc3)nc2)c1)c1cccc(C(F)(F)F)c1 [drawing 169] | 1.8 | 4.5
34 | Cc1ccc(NC(=O)C(F)(F)F)cc1C(=O)Nc1cnc(Nc2cccc(OCCN3CCCC3)c2)nc1 [drawing 173] | 50.6 | 
35 | O=C(Nc1ccc(Cl)c(C(=O)Nc2cnc(Nc3ccccc3)nc2)c1)c1cccc(C(F)(F)F)c1 [drawing 181] | 4.5 | 9.6
36 | Cc1ccc(Nc2nccc3ccccc23)cc1C(=O)Nc1cnc(Nc2cccc(OCCN3CCCC3)c2)nc1 [drawing 186] | 23.3 | 3350

Second part, the molecule after the results:

Row | IC50 (human c-Src) [nM] | IC50 (VEGFR2) [nM] | SMILES
37 | 1.9 | 3.1 | O=C(Nc1ccc(Cl)c(C(=O)Nc2cnc(Nc3ccc(C(=O)N4CCN(CCO)CC4)nc3)nc2)c1)c1cccc(C(F)(F)F)c1
38 | 3.8 | 14.2 | Cc1ccc(NC(=O)c2cccc(C(F)(F)F)c2)cc1C(=O)Nc1cnc(Nc2ccc(S(=O)(=O)CCCN3CCCC3)cc2)nc1
39 | 5 |  | O=C(Nc1ccc(Cl)c(C(=O)Nc2cnc(Nc3ccc(C(=O)NCCN4CCCC4)nc3)nc2)c1)c1cccc(C(F)(F)F)c1
40 | 4.1 | 21 | Cc1ccc(NC(=O)c2cccc(C(F)(F)F)c2)cc1C(=O)Nc1cnc(Nc2ccc(C(=O)NCCN3CCCC3)nc2)nc1
41 | 1.4 | 2.2 | O=C(NCCN1CCCC1)c1ccc(Nc2ncc(NC(=O)c3cc(NC(=O)c4cccc(C(F)(F)F)c4)ccc3Cl)cn2)cc1
42 | 1.7 |  | Cc1ccc(NC(=O)c2cccc(C(F)(F)F)c2)cc1C(=O)Nc1cnc(Nc2ccc(C(=O)NCCN3CCCC3)cc2)nc1
43 | 1.7 | 2.3 | CN1CCN(C(=O)c2ccc(Nc3ncc(NC(=O)c4cc(NC(=O)c5cccc(C(F)(F)F)c5)ccc4Cl)cn3)cc2)CC1
44 | 3 | 40.7 | O=C(Nc1ccc(Cl)c(C(=O)Nc2cnc(Nc3ccc(OCCN4CCCC4)cc3)nc2)c1)c1cccc(F)c1
45 | 67.4 |  | O=C(Nc1cnc(Nc2ccc(S(=O)(=O)CCCN3CCCC3)cc2)nc1)c1cccc(NC(=O)c2cccc(C(F)(F)F)c2)c1
46 | 65.7 |  | O=C(Nc1ccc(C(=O)Nc2cnc(Nc3cccc(OCCN4CCCC4)c3)nc2)c(Cl)c1)c1cccc(C(F)(F)F)c1
47 | > 10000 |  | O=C(Nc1ccc(Cl)c(C(=O)Nc2cnc(NCCN3CCCC3)nc2)c1)c1cccc(C(F)(F)F)c1
48 | 4 | 2.1 | O=C(Nc1ccc(Cl)c(C(=O)Nc2cnc(Nc3cccc(S(=O)(=O)NCCN4CCCC4)c3)nc2)c1)c1cccc(C(F)(F)F)c1
49 | 3.3 | 12 | O=C(Nc1ccc(Cl)c(C(=O)Nc2cnc(Nc3ccc(OCCN4CCCC4)cc3)nc2)c1)c1ccc(C(F)(F)F)cc1
50 | 50 | 43 | O=C(Nc1ccc(Cl)c(NC(=O)c2cnc(Nc3ccc(OCCN4CCCC4)cc3)nc2)c1)c1cccc(C(F)(F)F)c1
51 | 67 | 149 | O=C(Nc1ccc(Cl)c(NC(=O)c2cnc(Nc3cccc(OCCN4CCCC4)c3)nc2)c1)c1cccc(C(F)(F)F)c1
52 | 19 | 15 | O=C(Nc1ccc(Cl)c(C(=O)Nc2cnc(Nc3ccc(O)cc3)nc2)c1)c1cccc(C(F)(F)F)c1
53 |  | 2.9 | O=C(Nc1ccc(Cl)c(C(=O)Nc2cnc(Nc3ccc(S(=O)(=O)CCCN4CCCC4)cc3)nc2)c1)c1cccc(C(F)(F)F)c1 [drawing 161]
54 | 2.1 | 2.7 | O=C(Nc1ccc(Cl)c(C(=O)Nc2cnc(Nc3cccc(OCCN4CCCC4)c3)nc2)c1)c1cccc(C(F)(F)F)c1 [drawing 162]
55 | 3.9 | 13.8 | Cc1ccc(NC(=O)c2cccc(C(F)(F)F)c2)cc1C(=O)Nc1cnc(Nc2cccc(OCCN3CCCC3)c2)nc1 [drawing 163]
56 | 3.3 | 3.2 | Cc1ccc(NC(=O)c2cccc(C(F)(F)F)c2)cc1C(=O)Nc1cnc(Nc2ccc(OCCN3CCCC3)cc2)nc1 [drawing 170]
57 | 1.2 | 0.8 | O=C(Nc1ccc(Cl)c(C(=O)Nc2cnc(Nc3ccc(OCCN4CCCC4)cc3)nc2)c1)c1cccc(C(F)(F)F)c1 [drawing 171]
58 | 2.8 |  | O=C(Nc1ccc(Cl)c(C(=O)Nc2cnc(Nc3ccc(CCCN4CCCC4)cc3)nc2)c1)c1cccc(C(F)(F)F)c1 [drawing 172]
59 | 2.6 |  | O=C(Nc1ccc(Cl)c(C(=O)Nc2cnc(Nc3ccc(CCCN4CCCC4)cc3)nc2)c1)c1cccc(C(F)(F)F)c1 [drawing 180]
60 | 2.2 | 7.1 | O=C(Nc1cccc(C(F)(F)F)c1)Nc1ccc(Cl)c(C(=O)Nc2cnc(Nc3ccc(OCCN4CCCC4)cc3)nc2)c1 [drawing 202]
61 | 4.7 | 5.4 | O=C(Nc1ccc(Cl)c(C(=O)Nc2cnc(Nc3cccnc3)nc2)c1)c1cccc(C(F)(F)F)c1 [drawing 211]
